In patent US8076073B2, “Cholesterol and hedgehog signaling” (The Johns Hopkins University School of Medicine, priority 1998, dated 2011):
“Also recorded” adds a separate entry of the source.

Columns and labels:
[1] = system: pregnant ewes / newborn lambs; settings: grazing by pregnant ewes; cited from earlier work
Hh protein = target: T1, Hh protein (Drosophila melanogaster, UniProt Q02936); settings: relatively low concentrations; nucleophile in the second step; cited from earlier work
T1 construct: made in house
T1 sequence (Q02936 1-471): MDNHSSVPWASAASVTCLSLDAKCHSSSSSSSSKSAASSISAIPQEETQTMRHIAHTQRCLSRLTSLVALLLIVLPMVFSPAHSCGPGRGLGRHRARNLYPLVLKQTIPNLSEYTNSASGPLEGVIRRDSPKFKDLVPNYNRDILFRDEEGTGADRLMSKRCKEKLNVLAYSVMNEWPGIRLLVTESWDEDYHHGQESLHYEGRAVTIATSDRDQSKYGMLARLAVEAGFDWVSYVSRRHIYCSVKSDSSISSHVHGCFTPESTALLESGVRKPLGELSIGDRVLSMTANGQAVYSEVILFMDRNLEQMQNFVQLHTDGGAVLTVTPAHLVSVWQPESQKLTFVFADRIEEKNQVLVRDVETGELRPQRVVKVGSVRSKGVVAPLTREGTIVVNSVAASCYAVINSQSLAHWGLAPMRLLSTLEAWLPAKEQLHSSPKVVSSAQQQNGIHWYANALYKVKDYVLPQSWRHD

[2] = system: enzymes of cholesterol biosynthesis; settings: cited from earlier work
pregnant rats = settings: treatment of pregnant rats; cited from earlier work
mice = mice with hypomorphic apoB mutation (truncated apoB, reduced cholesterol levels); cited from earlier work
[3] = system: 7-dehydrocholesterol reductase; settings: cited from earlier work
COS7 cells = assay: Jervine inhibition of cholesterol biosynthesis, [3H]-mevalonic acid labelling and HPLC sterol analysis; format: cell-based; parameters: radiolabelled cholesterol levels / another radiolabelled sterol, tentatively identified as zymosterol: dose or concentration left out as unconfirmed
From the text: Given the structural similarities of these compounds to cholesterol and the similar teratogenic effects of cholesterol synthesis inhibitors upon the offspring of pregnant rats, a reasonable mechanism to consider for the effects of these plant sterol derivatives was the inhibition of cholesterol biosynthesis. Accordingly, we tested COS7 cultured cells treated with jervine for defects in cholesterol biosynthesis by labelling with [3H]-mevalonic acid and then extracting and analyzing radiolabelled, non-saponifiable lipids. […] Given the similarities in their teratogenic effects, this inhibition seems likely to underlie the teratogenic effects of both the synthetic and natural compounds.
Given the structural similarities of these compounds to cholesterol and the similar teratogenic effects of cholesterol synthesis inhibitors upon the offspring of pregnant rats, a reasonable mechanism to consider for the effects of these plant sterol derivatives was the inhibition of cholesterol biosynthesis. Accordingly, COS7 cultured cells treated with jervine were tested for defects in cholesterol biosynthesis by labelling with [3H]-mevalonic acid and then extracting and analyzing radiolabelled, non-saponifiable lipids. Metabolic labeling and sterol analysis was essentially as described (Popjak et al. J. Biol. Chem. 264: 630-6238.1989; Rilling et al. 1993 Arch. Biochem. Biophys. 301: 210-215.), with minor modifications. Briefly, COS-7 cells were plated at ˜35% confluence into two 60 mm dishes at 37° C. in 4 ml each of Dulbecco's modified Eagle's medium (DMEM) supplemented with 10% fetal bovine serum (FBS). After 24 hr of growth the medium in each dish was replaced with 2 ml fresh medium with 10% FBS; [^3H]-mevalonic acid (NEN #NET 176) brought to a specific activity of 0.8 Ci/mmol in a 1% solution of bovine serum albumin was added to this medium to a final concentration of […]. At this time, one dish received […] of a 4 mg/ml solution of jervine in ethanol (final concentration […] jervine), and the other received […] of ethanol. […]

[4] = COS7 cells labelled with [3H]-mevalonic acid, 24 hr, jervine (b16 and b71 print 28=|M), versus ethanol control

CC1=C2C[C@H]3[C@@H](CC=C4C[C@@H](O)CC[C@@]43C)[C@@H]2CC[C@]12O[C@@H]1C[C@H](C)CN[C@H]1[C@H]2C [cyclopamine]
congenital craniofacial malformations in newborn lambs [1]: responsible

CC(C)CCC[C@@H](C)[C@H]1CC[C@H]2[C@@H]3CC=C4C[C@@H](O)CC[C@]4(C)[C@H]3CC[C@]12C [Cholesterol, cholesterol]
effect on in vitro autoprocessing reaction (Hh protein): stimulates

CCN(CC)CCOc1ccc(C(O)(Cc2ccc(Cl)cc2)c2ccc(C)cc2)cc1 (stereo not drawn) [Triparanol]
sterol precursor abnormally accumulated [2]: desmosterol | induction of HPE-like malformations (pregnant rats): HPE-like malformations can be induced

O=C(O)c1ccc(CCN2CCN(C/C=C/c3ccc(Cl)cc3)CC2)cc1 [BM 15.766]
teratogenesis, resulting defects (mice): severe holoprosencephaly | sterol precursor abnormally accumulated [2]: 7-dehydrocholesterol | inhibition of 7-dehydrocholesterol reductase [3]: inhibited | induction of HPE-like malformations (pregnant rats): HPE-like malformations can be induced

CC1=C2C(=O)[C@H]3[C@@H](CC=C4C[C@@H](O)CC[C@@]43C)[C@@H]2CC[C@]12O[C@@H]1C[C@H](C)CN[C@H]1[C@H]2C [jervine]
congenital craniofacial malformations in newborn lambs [1]: responsible | another radiolabelled sterol, tentatively identified as zymosterol (COS7 cells; [4]): found to accumulate; also recorded: increased levels | radiolabelled cholesterol levels (COS7 cells; [4]): reduced levels | inhibition of cholesterol biosynthesis in cultured cells (COS7 cells; COS7 cells, jervine at these concentrations): inhibits cholesterol biosynthesis

Cl.Cl.Clc1ccccc1CNCC1CCC(CNCc2ccccc2Cl)CC1 (stereo not drawn) [AY 9944R]
sterol precursor abnormally accumulated [2]: 7-dehydrocholesterol | inhibition of 7-dehydrocholesterol reductase [3]: inhibited | induction of HPE-like malformations (pregnant rats): HPE-like malformations can be induced
